# Results reported in patent US9376429B2, “Sodium channel blockers, preparation method thereof and use thereof” (Daewoong Pharmaceutical Co., Ltd., priority 2012, dated 2016).
# pIC50: −log10 of the molar value.
# Target: T1, sodium ion channel (Nav1.7) (Homo sapiens, UniProt Q15858)
# T1 construct: host or cells: HEK293
# Experiment: Blocking effect against sodium ion channel (Nav1.7), IonFlux16 auto patch clamp, hNav1.7 HEK293 cells
# Type: cell-based
# Conditions: peak current after 50 seconds treatment, eight concentrations
# Method: In order to measure the activities of the inventive compounds as antagonists, an experiment on a blocking effect against the sodium ion channel (Nav1.7) was carried out as follows.
# The hNav1.7 HEK293 cell line used was a cell line having a human sodium ion channel 1.7 gene (type IX voltage-gated sodium channel alpha subunit) in human embryonic kidney (HEK) 293 cells and was purchased from Millipore. The medium used was prepared by adding 1% 100×NEAA and 10% heat inactivated FBS to DMEM F-12 and adding 1% P/S as an antibiotic thereto. G-418 as a […] was added during subculture, and the hNav1.7 HEK293 cells were cultured to a confluence of about 80% in a T75 flask in a 5% CO2 incubator at 37° C. for 2 or 3 days and detached from the flask by treatment with 0.25% trypsin solution. Then, the cells were collected by centrifugation and used in the experiment.
# The compounds prepared in the Examples of the present invention were dissolved in dimethyl sulfoxide (DMSO) and used in the experiment. 90 mM and 10 mM DMSO stock solutions were prepared from each of the compounds and diluted in an extracellular solution (4 mM KCl, 138 mM NaCl, 1 mM MgCl2, 1.8 mM CaCl2, 5.6 mM glucose, 10 mM HEPES, pH 7.45) at various concentrations so that the final concentration of each compound in DMSO was 0.3% or less.
# To measure the sodium ion channel blocking effect, an IonFlux16 Auto patch clamp system (Fluxion, Inc.) and a plate for exclusive use were used. The cells were distributed in an extracellular solution (4 mM KCl, 138 mM NaCl, 1 mM MgCl2, 1.8 mM CaCl2, 5.6 mM glucose, 10 mM HEPES, pH 7.45), and then dispensed in the specified region of the plate, and each of the prepared compound samples was diluted at various concentrations, and then dispensed in the specified region of the plate.
# Specifically, eight concentrations per compound were set, and percent inhibition was determined by calculating the percentage of inhibition of the peak current, generated after treating the cells with each concentration of the compound for 50 seconds, relative to the peak current generated before treatment with the compound, and the IC50 value was calculated using the Sigma plot program. In Table 2 below, the percent inhibition of Nav1.7 is rated as follows: […]
# T1 sequence (Q15858 whole entry): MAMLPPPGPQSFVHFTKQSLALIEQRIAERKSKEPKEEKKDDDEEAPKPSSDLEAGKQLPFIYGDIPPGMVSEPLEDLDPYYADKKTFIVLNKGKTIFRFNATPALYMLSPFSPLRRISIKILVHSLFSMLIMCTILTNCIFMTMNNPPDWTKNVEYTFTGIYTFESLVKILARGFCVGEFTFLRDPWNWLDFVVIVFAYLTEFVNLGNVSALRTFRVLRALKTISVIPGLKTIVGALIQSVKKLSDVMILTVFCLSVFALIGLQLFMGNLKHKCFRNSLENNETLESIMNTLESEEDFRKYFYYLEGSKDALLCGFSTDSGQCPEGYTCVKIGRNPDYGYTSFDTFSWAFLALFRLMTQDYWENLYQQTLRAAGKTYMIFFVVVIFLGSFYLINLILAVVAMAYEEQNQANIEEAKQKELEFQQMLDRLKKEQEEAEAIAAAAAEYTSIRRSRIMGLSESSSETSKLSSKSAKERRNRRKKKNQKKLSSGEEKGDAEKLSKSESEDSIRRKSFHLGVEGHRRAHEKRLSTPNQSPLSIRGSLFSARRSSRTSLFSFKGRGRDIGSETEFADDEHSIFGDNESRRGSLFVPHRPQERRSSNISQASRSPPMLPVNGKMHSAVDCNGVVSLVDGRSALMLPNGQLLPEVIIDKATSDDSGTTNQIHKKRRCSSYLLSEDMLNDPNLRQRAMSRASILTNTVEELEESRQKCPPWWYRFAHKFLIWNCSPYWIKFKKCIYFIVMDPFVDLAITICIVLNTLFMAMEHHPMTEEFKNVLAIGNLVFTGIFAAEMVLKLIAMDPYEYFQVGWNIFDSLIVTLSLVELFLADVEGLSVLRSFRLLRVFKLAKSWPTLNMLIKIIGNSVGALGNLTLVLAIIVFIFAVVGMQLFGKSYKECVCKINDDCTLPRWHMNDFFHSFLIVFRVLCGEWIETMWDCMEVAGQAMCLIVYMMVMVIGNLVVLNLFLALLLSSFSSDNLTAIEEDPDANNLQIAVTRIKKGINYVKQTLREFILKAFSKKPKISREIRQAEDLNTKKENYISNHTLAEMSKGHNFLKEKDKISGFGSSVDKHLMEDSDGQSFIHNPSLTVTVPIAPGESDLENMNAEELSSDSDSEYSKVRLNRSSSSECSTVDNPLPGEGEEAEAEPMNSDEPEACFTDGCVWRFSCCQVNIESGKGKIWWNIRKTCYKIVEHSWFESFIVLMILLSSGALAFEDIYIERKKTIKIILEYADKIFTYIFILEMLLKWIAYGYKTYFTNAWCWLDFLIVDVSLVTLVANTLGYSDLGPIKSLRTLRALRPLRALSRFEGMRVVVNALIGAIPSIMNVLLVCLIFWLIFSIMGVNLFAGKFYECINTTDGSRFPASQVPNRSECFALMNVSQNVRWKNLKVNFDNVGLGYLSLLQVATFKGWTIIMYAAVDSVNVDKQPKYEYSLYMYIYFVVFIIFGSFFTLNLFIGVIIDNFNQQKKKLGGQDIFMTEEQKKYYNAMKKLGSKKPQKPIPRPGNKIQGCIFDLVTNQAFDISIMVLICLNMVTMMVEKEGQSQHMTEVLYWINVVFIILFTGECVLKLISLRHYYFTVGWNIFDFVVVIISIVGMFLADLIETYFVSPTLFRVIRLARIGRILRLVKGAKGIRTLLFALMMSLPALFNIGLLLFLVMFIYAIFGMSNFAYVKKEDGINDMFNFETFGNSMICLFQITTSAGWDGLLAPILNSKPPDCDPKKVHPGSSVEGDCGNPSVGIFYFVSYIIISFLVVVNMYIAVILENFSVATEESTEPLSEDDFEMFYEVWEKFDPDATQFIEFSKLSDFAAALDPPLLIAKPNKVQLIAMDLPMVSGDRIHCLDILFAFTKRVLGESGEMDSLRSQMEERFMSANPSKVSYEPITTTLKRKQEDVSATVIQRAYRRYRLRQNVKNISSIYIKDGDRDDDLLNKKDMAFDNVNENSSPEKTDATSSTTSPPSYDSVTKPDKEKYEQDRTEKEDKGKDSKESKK
row,SMILES,pIC50
1,"Cn1nccc1-c1cc(-c2ccnc(F)c2)ncc1Oc1ccc(S(=O)(=O)Nc2nccs2)cc1C#N [Example 27, 3-cyano-4-((2′-fluoro-4-(1-methyl-1H-pyrazol-5-yl)-[2,4′-bipyridin]-5-yl)oxy)-N-(thiazol-2-yl)benzenesulfonamide]",< 7.00
2,"O=S(=O)(Nc1nccs1)c1ccc(Oc2cnc(-c3ccoc3)cc2-c2ccoc2)cc1 [Example 28, 4-((4,6-di(furan-3-yl)pyridin-3-yl)oxy)-N-(thiazol-2-yl)benzenesulfonamide]",< 7.00
3,"N#Cc1cc(S(=O)(=O)Nc2nccs2)ccc1Oc1cnc(-c2ccccc2)cc1-c1cccnc1F [Example 29, 3-cyano-4-((2-fluoro-6′-phenyl-[3,4′-bipyridin]-3′-yl)oxy)-N-(thiazol-2-yl)benzenesulfonamide]",< 7.00
4,"N#Cc1cc(S(=O)(=O)Nc2nccs2)ccc1Oc1cnc(-c2ccccc2)cc1-c1ccc(F)nc1 [Example 30, 3-cyano-4-((6-fluoro-6′-phenyl-[3,4′-bipyridin]-3′-yl)oxy)-N-(thiazol-2-yl)benzenesulfonamide]",< 7.00
5,"N#Cc1cc(S(=O)(=O)Nc2nccs2)ccc1Oc1cnc(-c2ccccc2)cc1-c1ccnc(F)c1 [Example 31, 3-cyano-4-((2′-fluoro-6-phenyl-[4,4′-bipyridin]-3-yl)oxy)-N-(thiazol-2-yl)benzenesulfonamide]",7.00 to 7.29
6,"Cc1cc(-c2cc(-c3ccccc3)ncc2Oc2ccc(S(=O)(=O)Nc3nccs3)cc2C#N)cnc1F [Example 32, 3-cyano-4-((6-fluoro-5-methyl-6′-phenyl-[3,4′-bipyridin]-3′-yl)oxy)-N-(thiazol-2-yl)benzenesulfonamide]",< 7.00
7,"N#Cc1cc(S(=O)(=O)Nc2nccs2)ccc1Oc1cnc(-c2ccccc2)cc1-c1cccnc1 [Example 33, 3-cyano-4-((6′-phenyl-[3,4′-bipyridin]-3′-yl)oxy)-N-(thiazol-2-yl)benzenesulfonamide]",< 7.00
8,"N#Cc1cc(S(=O)(=O)Nc2nccs2)ccc1Oc1cnc(-c2ccccc2)cc1-c1cncnc1 [Example 34, 3-cyano-4-((6-phenyl-4-(pyrimidin-5-yl)pyridin-3-yl)oxy)-N-(thiazol-2-yl)benzenesulfonamide]",< 7.00
9,"N#Cc1cc(S(=O)(=O)Nc2nccs2)ccc1Oc1cnc(-c2ccccc2)cc1-c1ccncc1Cl [Example 35, 4-((3′-chloro-6-phenyl-[4,4′-bipyridin]-3-yl)oxy)-3-cyano-N-(thiazol-2-yl)benzenesulfonamide]",< 7.00
10,"N#Cc1cc(S(=O)(=O)Nc2nccs2)ccc1Oc1cnc(-c2ccccc2)cc1-c1ccnc(Cl)c1Cl [Example 36, 3-cyano-4-((2′,3′-dichloro-6-phenyl-[4,4′-bipyridin]-3-yl)oxy)-N-(thiazol-2-yl)benzenesulfonamide]",< 7.00
11,"Cc1noc(C)c1-c1cc(-c2ccccc2)ncc1Oc1ccc(S(=O)(=O)Nc2nccs2)cc1C#N [Example 37, 3-cyano-4-((4-(3,5-dimethylisoxazol-4-yl)-6-phenylpyridin-3-yl)oxy)-N-(thiazol-2-yl)benzenesulfonamide]",< 7.00
12,"Cn1cc(-c2cc(-c3ccccc3)ncc2Oc2ccc(S(=O)(=O)Nc3nccs3)cc2C#N)cn1 [Example 38, 3-cyano-4-((4-(1-methyl-1H-pyrazol-4-yl)-6-phenylpyridin-3-yl)oxy)-N-(thiazol-2-yl)benzenesulfonamide]",< 7.00
13,"N#Cc1cc(S(=O)(=O)Nc2nccs2)ccc1Oc1cnc(-c2ccccc2)cc1-c1cn[nH]c1 [Example 39, 3-cyano-4-((6-phenyl-4-(1H-pyrazol-4-yl)pyridin-3-yl)oxy)-N-(thiazol-2-yl)benzenesulfonamide]",7.00 to 7.29
14,"N#Cc1cc(S(=O)(=O)Nc2nccs2)ccc1Oc1cnc(-c2ccccc2)cc1-c1ccncc1 [Example 40, 3-cyano-4-((6-phenyl-[4,4′-bipyridin]-3-yl)oxy)-N-(thiazol-2-yl)benzenesulfonamide]",< 7.00
